Test results published in patent US10065970B2 (Genentech, Inc., priority 2015, dated 2018).
Structures can show the parent of a compound that is named as a salt.

Biological target: PI3Kα (alpha) (Homo sapiens (Human), UniProt P42336)
Assay: p110α (alpha) PI3K Binding Assay (ADP-Glo lipid kinase reaction)
Assay type: biochemical
Conditions: PI3K alpha 0.2 nM, ATP 40 μM, PIP2:3PS 50 μM, 120 min, room temperature; Ki by Morrison Equation; read-out: PI3Kα-(alpha) ATP (Ki) micromolar
In short: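 Enzyme with PIP2:3PS lipid substrate and ATP/MgCl2 in 50 mM HEPES, 50 mM NaCl, 3 mM MgCl2, 0.01% BSA, 1% DMSO, 120 min at room temperature. ADP formed detected by ADP-Glo luminescence. Ki from 10-point dose-response curves via the Morrison equation.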

PI3Kα (alpha), sequence (P42336 whole entry): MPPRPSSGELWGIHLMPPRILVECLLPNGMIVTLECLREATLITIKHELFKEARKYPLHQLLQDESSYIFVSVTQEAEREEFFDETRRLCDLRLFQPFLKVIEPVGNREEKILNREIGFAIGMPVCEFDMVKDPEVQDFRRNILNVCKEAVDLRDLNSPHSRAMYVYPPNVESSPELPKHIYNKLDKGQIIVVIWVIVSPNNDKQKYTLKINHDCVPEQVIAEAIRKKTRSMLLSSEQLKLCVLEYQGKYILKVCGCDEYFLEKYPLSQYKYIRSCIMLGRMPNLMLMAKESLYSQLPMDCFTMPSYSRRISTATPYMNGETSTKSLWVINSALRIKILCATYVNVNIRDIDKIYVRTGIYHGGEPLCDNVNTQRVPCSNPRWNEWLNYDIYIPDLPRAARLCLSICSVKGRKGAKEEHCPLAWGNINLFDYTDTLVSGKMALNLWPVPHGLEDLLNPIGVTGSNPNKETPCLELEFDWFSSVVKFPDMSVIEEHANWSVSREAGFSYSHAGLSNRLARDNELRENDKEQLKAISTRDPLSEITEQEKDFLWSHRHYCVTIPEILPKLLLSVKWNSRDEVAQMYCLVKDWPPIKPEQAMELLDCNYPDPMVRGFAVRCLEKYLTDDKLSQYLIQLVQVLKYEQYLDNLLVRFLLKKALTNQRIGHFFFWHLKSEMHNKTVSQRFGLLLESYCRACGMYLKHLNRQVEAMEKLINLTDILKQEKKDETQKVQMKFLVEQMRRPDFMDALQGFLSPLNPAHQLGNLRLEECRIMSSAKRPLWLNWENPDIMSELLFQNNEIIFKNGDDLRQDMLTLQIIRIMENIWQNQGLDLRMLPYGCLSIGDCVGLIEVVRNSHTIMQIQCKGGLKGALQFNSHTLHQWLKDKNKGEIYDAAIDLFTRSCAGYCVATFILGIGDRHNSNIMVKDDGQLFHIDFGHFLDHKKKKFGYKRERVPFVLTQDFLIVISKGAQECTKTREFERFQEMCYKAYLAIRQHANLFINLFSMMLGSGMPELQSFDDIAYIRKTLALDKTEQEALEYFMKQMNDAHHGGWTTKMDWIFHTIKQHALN
PI3Kα (alpha), sequence (P27986 whole entry partner): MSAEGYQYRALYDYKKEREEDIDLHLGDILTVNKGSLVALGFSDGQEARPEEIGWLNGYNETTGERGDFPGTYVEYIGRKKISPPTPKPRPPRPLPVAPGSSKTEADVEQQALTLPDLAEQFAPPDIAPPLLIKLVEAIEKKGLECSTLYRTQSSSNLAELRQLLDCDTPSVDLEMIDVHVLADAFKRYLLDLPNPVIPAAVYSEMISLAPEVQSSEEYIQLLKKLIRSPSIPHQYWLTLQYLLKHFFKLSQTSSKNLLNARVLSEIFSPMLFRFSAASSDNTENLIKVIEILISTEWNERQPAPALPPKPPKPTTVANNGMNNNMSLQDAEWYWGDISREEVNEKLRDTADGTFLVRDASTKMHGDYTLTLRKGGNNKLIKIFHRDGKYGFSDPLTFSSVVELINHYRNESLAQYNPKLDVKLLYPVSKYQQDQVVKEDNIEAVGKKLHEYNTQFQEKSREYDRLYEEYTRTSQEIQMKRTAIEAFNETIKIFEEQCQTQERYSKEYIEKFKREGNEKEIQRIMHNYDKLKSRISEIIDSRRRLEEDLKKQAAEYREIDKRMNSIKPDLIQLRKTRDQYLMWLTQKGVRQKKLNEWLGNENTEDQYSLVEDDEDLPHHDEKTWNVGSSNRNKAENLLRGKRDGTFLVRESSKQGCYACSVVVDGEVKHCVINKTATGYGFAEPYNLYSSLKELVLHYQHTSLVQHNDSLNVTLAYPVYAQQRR

Row | Structure (SMILES) | Ki
1 | Nc1nc2cc(-n3nc4cc(Br)cc5c4c3CCCO5)ccc2o1 [Example 253, 5-(4-Bromo-8,9-dihydrooxepino[4,3,2-cd]indazol-1(7H)-yl)benzo[d]oxazol-2-amine] | 50.8 nM
2 | C[C@H](Oc1cc2c3c(c1)nc(-c1ccc4nc(N)sc4n1)n3CCCCO2)C(N)=O [Example 265, (S)-2-((1-(2-Aminothiazolo[5,4-b]pyridin-5-yl)-7,8,9,10-tetrahydro-6-oxa-2,10a-diazacycloocta[cd]inden-4-yl)oxy)propanamide] | < 0.02 nM
3 | CNC(=O)C(C)(C)n1cc(-c2cc3c4c(c2)nc(-c2ccc5oc(N)nc5c2)n4CCCO3)cn1 [Example 154, 2-(4-(1-(2-Aminobenzo[d]oxazol-5-yl)-8,9-dihydro-7H-6-oxa-2,9a-diazabenzo[cd]azulen-4-yl)-1H-pyrazol-1-yl)-N,2-dimethylpropanamide] | 0.317 nM
4 | C[C@@H]1Cn2c(-c3ccc4oc(N)nc4c3)nc3cc(O[C@H](C)C(N)=O)cc(c32)O1 [Example 251, (R)-2-(((R)-2-(2-Aminobenzo[d]oxazol-5-yl)-4-methyl-3,4-dihydro-5-oxa-1,2a-diazaacenaphthylen-7-yl)oxy)propanamide] | 2.27 nM
5 | C[C@H](Oc1cc2c3c(c1)nc(-c1ccc4oc(N)nc4c1)n3CCCO2)C(N)=O [Example 162, (S)-2-((1-(2-Aminobenzo[d]oxazol-5-yl)-8,9-dihydro-7H-6-oxa-2,9a-diazabenzo [cd]azulen-4-yl)oxy)propanamide] | 0.201 nM
6 | Nc1nc2cc(-c3nc4c(F)c(Br)cc5c4n3CCCO5)ccc2o1 [Example 193, 5-(4-Bromo-3-fluoro-8,9-dihydro-7H-6-oxa-2,9a-diazabenzo[cd]azulen-1-yl)benzo[d]oxazol-2-amine] | 5.17 nM
7 | C[C@@H](Oc1cc2c3c(c1)nc(-c1ccc4sc(N)nc4c1)n3CCCCO2)C(N)=O (single isomer, unassigned) [Example 275] | 0.754 nM
8 | NC(=O)[C@@H]1[C@@H](F)CCN1c1cc2c3c(c1)nc(-c1ccc4oc(N)nc4c1)n3CCCCO2 [Example 294, (2R,3S)-1-(1-(2-Aminobenzo[d]oxazol-5-yl)-7,8,9,10-tetrahydro-6-oxa-2,10a-diazacycloocta[cd]inden-4-yl)-3-fluoropyrrolidine-2-carboxamide] | < 0.02 nM
9 | C[C@@H](C(N)=O)N(C)c1cc2c3c(c1)nc(-c1cc(F)c4oc(N)nc4c1)n3CCCCO2 [Example 264, (S)-2-((1-(2-Amino-7-fluorobenzo[d]oxazol-5-yl)-7,8,9,10-tetrahydro-6-oxa-2,10a-diazacycloocta[cd]inden-4-yl)(methyl)amino)propanamide] | < 0.02 nM
10 | C[C@H](Oc1cc2c3c(c1)nc(-c1ccc4nc(N)sc4c1)n3CCCCO2)C(N)=O [Example 248, (S)-2-((1-(2-Aminobenzo[d]thiazol-6-yl)-7,8,9,10-tetrahydro-6-oxa-2,10a-diazacycloocta[cd]inden-4-yl)oxy)propanamide] | 0.03 nM
11 | C[C@@H](Oc1cc2c3c(c1)nc(-c1ccc4oc(N)nc4c1)n3CCCCO2)C(N)=O [Example 245, (R)-2-((1-(2-Aminobenzo[d]oxazol-5-yl)-7,8,9,10-tetrahydro-6-oxa-2,10a-diazacycloocta[cd]inden-4-yl)oxy)propanamide] | 0.032 nM
12 | C[C@@H](C(N)=O)n1cc(-c2cc3c4c(c2)nc(-c2ccc5oc(N)nc5c2)n4CCCO3)cn1 [Example 219, (S)-2-(4-(1-(2-Aminobenzo[d]oxazol-5-yl)-8,9-dihydro-7H-6-oxa-2,9a-diazabenzo[cd]azulen-4-yl)-1H-pyrazol-1-yl)propanamide] | 0.242 nM
13 | C[C@H](Oc1cc2c3c(c1)nc(-c1ccc4sc(N)nc4c1)n3CCCCO2)C(N)=O (single isomer, unassigned) [Example 276] | 0.113 nM
14 | C[C@H](Oc1cc2c3c(c1)nc(-c1cc4sc(N)nc4cc1F)n3CCCCO2)C(N)=O (single isomer, unassigned) [Example 277] | 0.208 nM

Next, values leading:

Row | Ki | Structure (SMILES)
15 | 8.21 nM | NC(=O)[C@@H]1CCCN1c1cc2c3c(c1)nc(-c1ccc(-c4ncsn4)cc1)n3CCCO2 [Example 227, (S)-1-(1-(4-(1,2,4-Thiadiazol-3-yl)phenyl)-8,9-dihydro-7H-6-oxa-2,9a-diazabenzo[cd]azulen-4-yl)pyrrolidine-2-carboxamide]
16 | 36.7 nM | NC(=O)[C@@H](Nc1cc2c3c(c1)nc(-c1ccc4c(c1)C(=O)NC4)n3CCCO2)C1CC1 [Example 115, (S)-2-Cyclopropyl-2-((1-(3-oxoisoindolin-5-yl)-8,9-dihydro-7H-6-oxa-2,9a-diazabenzo[cd]azulen-4-yl)amino)acetamide]
17 | 0.58 nM | C[C@@H](Nc1cc2c3c(c1)nc(-c1ccc4oc(N)nc4c1)n3CCCO2)C(N)=O [Example 107, (R)-2-((1-(2-Aminobenzo[d]oxazol-5-yl)-8,9-dihydro-7H-6-oxa-2,9a-diazabenzo[cd]azulen-4-yl)amino)propanamide]
18 | 5.34 nM | NC(=O)[C@@H](Nc1cc2c3c(c1)nc(-c1ccc4nc(N)ncc4c1)n3CCCO2)C1CC1 [Example 120]
19 | 195 nM | CC(C)(C(N)=O)n1cc(-c2nc3cc(N[C@H](C(N)=O)C4CC4)cc4c3n2CCCO4)cn1 [Example 181, 2-(4-{4-[((S)-Carbamoylcyclopropylmethyl)amino]-8,9-dihydro-7H-6-oxa-2,9a-diazabenzo[cd]azulen-1-yl}pyrazol-1-yl)isobutyramide formic acid salt]
20 | 326 nM | NC(=O)[C@@H](Nc1cc2c3c(c1)nc(-c1ccnc4[nH]cnc14)n3CCCO2)C1CC1 [Example 176, (S)-2-((1-(3H-Imidazo[4,5-b]pyridin-7-yl)-8,9-dihydro-7H-6-oxa-2,9a-diazabenzo[cd]azulen-4-yl)amino)-2-cyclopropylacetamide]
21 | 719 nM | NC(=O)[C@@H](Nc1cc2c3c(c1)nc(N1CCCCC1)n3CCCO2)C1CC1 [Example 127, (S)-2-Cyclopropyl-2-(1-piperidin-1-yl-8,9-dihydro-7H-6-oxa-2,9a-diazabenzo[cd]azulen-4-ylamino)acetamide]
22 | 261 nM | C[C@H](Nc1cc2c3c(c1)nc(-c1ccc(C#N)cn1)n3CCCO2)C(N)=O [Example 110, (S)-2-((1-(5-Cyanopyridin-2-yl)-8,9-dihydro-7H-6-oxa-2,9a-diazabenzo[cd]azulen-4-yl)amino)propanamide]
23 | 25.9 nM | NC(=O)[C@@H]1CCCN1c1cc2c3c(c1)nc(-c1ccnc4[nH]nnc14)n3CCCO2 [Example 206, (S)-1-(1-(3H-[1,2,3]Triazolo[4,5-b]pyridin-7-yl)-8,9-dihydro-7H-6-oxa-2,9a-diazabenzo[cd]azulen-4-yl)pyrrolidine-2-carb oxamide]
24 | 2.92 nM | NC(=O)[C@@H]1CCCN1c1cc2c3c(c1)nc(-c1ccc4c(c1)N1CCC(=O)N=C1O4)n3CCCO2 [Example 220, (S)-1-(1-(2-Oxo-3,4-dihydro-2H-benzo[4,5]oxazolo[3,2-a]pyrimidin-7-yl)-8,9-dihydro-7H-6-oxa-2,9a-diazabenzo[cd]azulen-4-yl)pyrrolidine-2-carboxamide]
25 | 0.045 nM | C[C@@H]1Cn2c(-c3ccc4oc(N)nc4c3)nc3cc(N[C@H](C(N)=O)C4CC4)cc(c32)O1 [Example 238, (S)-2-(((R)-2-(2-Aminobenzo[d]oxazol-5-yl)-4-methyl-3,4-dihydro-5-oxa-1,2a-diazaacenaphthylen-7-yl)amino)-2-cyclopropylacetamide]
26 | 0.72 nM | NC(=O)[C@H](Oc1cc2c3c(c1)nc(-c1ccc(-c4ncn[nH]4)c(F)c1)n3CCCCO2)C1CC1 (single isomer, unassigned) [Example 306]
27 | 0.424 nM | NC(=O)[C@@H](Nc1cc2c3c(c1)nc(-c1cc(F)c4nccnc4c1)n3CCCO2)C1CC1 [Example 215, (S)-2-Cyclopropyl-2-((1-(8-fluoroquinoxalin-6-yl)-8,9-dihydro-7H-6-oxa-2,9a-diazabenzo[cd]azulen-4-yl)amino)acetamide]
28 | 18.2 nM | NC(=O)[C@@H](Nc1cc2c3c(c1)nc(N1Cc4cnc(N)nc4C1)n3CCCO2)C1CC1 [Example 149, (S)-2-((1-(2-Amino-5H-pyrrolo[3,4-d]pyrimidin-6(7H)-yl)-8,9-dihydro-7H-6-oxa-2,9a-diazabenzo[cd]azulen-4-yl)amino)-2-cyclopropylacetamide]
29 | 130 nM | C[C@H](Nc1cc2c3c(c1)nc(-c1ccccc1)n3CCCO2)C(N)=O [Example 106, (S)-2-((1-phenyl-8,9-dihydro-7H-6-oxa-2,9a-diazabenzo[cd]azulen-4-yl)amino)propanamide]
30 | 664 nM | NC(=O)[C@@H](Nc1cc2c3c(c1)nc(N1CCCOCC1)n3CCCO2)C1CC1 [Example 180, (S)-2-((1-(1,4-Oxazepan-4-yl)-8,9-dihydro-7H-6-oxa-2,9a-diazabenzo[cd]azulen-4-yl)amino)-2-cyclopropylacetamide]
31 | 148 nM | NC(=O)[C@@H](Nc1cc2c3c(c1)nc(-c1cn[nH]c1)n3CCCO2)C1CC1 [Example 212, (S)-2-((1-(1H-Pyrazol-4-yl)-8,9-dihydro-7H-6-oxa-2,9a-diazabenzo[cd]azulen-4-yl)amino)-2-cyclopropylacetamide]
32 | 678 nM | NC(=O)[C@@H](Nc1cc2c3c(c1)nc(N1CCC(CO)CC1)n3CCCO2)C1CC1 [Example 126, (S)-2-Cyclopropyl-2-[1-(4-hydroxymethylpiperidin-1-yl)-8,9-dihydro-7H-6-oxa-2,9a-diazabenzo[cd]azulen-4-ylamino]acetamide]
33 | 916 nM | CS(=O)(=O)c1ccc(-c2nc3cc(N[C@H](C(N)=O)C4CC4)cc4c3n2CCCO4)cc1 [Example 137, (S)-2-Cyclopropyl-2-((1-(4-(methylsulfonyl)phenyl)-8,9-dihydro-7H-6-oxa-2,9a-diazabenzo[cd]azulen-4-yl)amino)acetamide]
34 | 34.2 nM | COc1ccc(-c2nc3cc(N[C@H](C(N)=O)C4CC4)cc4c3n2CCCO4)cc1OC(F)F [Example 163, (S)-2-Cyclopropyl-2-((1-(3-(difluoromethoxy)-4-methoxyphenyl)-8,9-dihydro-7H-6-oxa-2,9a-diazabenzo[cd]azulen-4-yl)amino)acetamide]
